Test results as given in PubChem BioAssay AID2305 (GlaxoSmithKline (GSK), 2010).

The molecules below were run on P. falciparum 3D7 growth, pLDH absorbance (assay: P. falciparum 3D7 growth inhibition, dose response, strain 3D7 (AID 2305)).
Work on `Cc1cc(NC(=O)Nc2cccc(N(C)C)c2)c2ccccc2n1` yielded an IC50 of 200 nM.
With `O=C(Nc1cccc(CN2CCCN(Cc3cccc(Cl)c3)CC2)c1)c1ccc(-c2ccccc2)cc1` the IC50 was 1230 nM.
Molecule `COc1cccc(C(=O)NCc2cccs2)c1OCc1ccccc1` has an IC50 of 920 nM.
`CCN(CC)CCCCCNc1c2ccc(Cl)cc2nc2ccc(OC)cc12` showed an IC50 of 50 nM.
`COc1ccc(C(=O)NCCCCN2CCC(c3ccc4c(c3OC)CCCC4)CC2)cc1-c1ccc(C(F)(F)F)cc1` gave an IC50 of 750 nM.
For `COc1ccccc1CNC(=O)c1nn(-c2ccc(Cl)cc2)c(=O)c2ccccc12`, the IC50 was 290 nM.
In the case of `CCCCCCNc1cc(C)nc(/N=C(\N)Nc2cccc(C(F)(F)F)c2)n1`, the IC50 is reported as 740 nM.
Molecule `Cc1cc2nc(-c3ccc(/C=C/C(=O)NCCCc4ccccc4)cc3)[nH]c2cc1C` has an IC50 of 960 nM.
In the case of `CN(C)Cc1c(O)ccc2[nH]c(-c3cccc(F)c3)nc12`, the IC50 is reported as 1000 nM.
For `Fc1ccc(-c2cc3ncnc(N4CCN(CCN5CCCC5)CC4)c3s2)cc1`, the IC50 was 740 nM.
`CC(C)(C)C(=O)Nc1c(-c2cc(=O)oc3cc4c(cc23)CCC4)oc2ccccc12` gave an IC50 of 1260 nM.
With `O=C(CNc1ccc(Cl)c(S(=O)(=O)N2CCCC2)c1)Nc1ccc(Br)cc1F` the IC50 was 320 nM.
Molecule `CN(c1ccc(NC(=O)c2ccc(F)cc2)cc1)C1CCN(Cc2cccc(F)c2)C1` (stereo unspecified) has an IC50 of 1410 nM.
`Cc1cccc(OC2CCN(c3ncc(C(=O)NCCCN4CCCC4=O)cc3Cl)CC2)c1` gave an IC50 of 180 nM.
For `COc1ccc(OC)c(C=CC(=O)NC2CCC(CN3CCC(c4c[nH]c5ccccc45)CC3)CC2)c1` (stereo unspecified), the IC50 was 650 nM.
Work on `O=C(Nc1ccc2c(c1)CCN2C1CCN(Cc2cccc(F)c2F)C1)c1ccco1` (stereo unspecified) yielded an IC50 of 790 nM.
With `O=c1c(Br)ccccc1Br` the IC50 was 790 nM.
`COC(=O)/C=C/c1ccc(C[C@@H](C)NC[C@H](O)c2cccc(C(F)(F)F)c2)cc1` gave an IC50 of 730 nM.
Molecule `O=C(Nc1ccc(C(F)(F)F)cc1)c1cc(Br)cnc1NCCCn1ccnc1` has an IC50 of 970 nM.
Molecule `CCOC(=O)c1cn(CC)c2cc(N(C)CCc3ccc(OC)c(OC)c3)c(F)cc2c1=O` has an IC50 of 430 nM.
With `O=C(Nc1ccc2c(c1)CCN2C1CCN(Cc2cccc(C(F)(F)F)c2)C1)c1ccco1` (stereo unspecified) the IC50 was 560 nM.
`CC(C)CNCc1cccc(-c2cccc(CN(C(=O)Nc3ccccc3)C3CCN(Cc4ccccc4)CC3)c2)c1` showed an IC50 of 370 nM.
For `O=C(NC1CCN(CCC[C@]2(c3ccc(Cl)c(Cl)c3)CCCN(C(=O)c3ccccc3)C2)CC1)c1ccc(F)cc1`, the IC50 was 880 nM.
In the case of `CCOc1cc(C(=O)Nc2ccccc2N2CCN(S(C)(=O)=O)CC2)cc(OCC)c1OCC`, the IC50 is reported as 650 nM.
For `O=c1cc(NCCCNCc2cccc(Oc3ccccc3)c2)[nH]c2ccccc12`, the IC50 was 950 nM.
In the case of `COc1ccc(N2CCN(CCCCNC(=O)c3ccc(NC(=O)c4cc(Cl)cc(Cl)c4)cc3)CC2)c(OC)c1`, the IC50 is reported as 300 nM.
With `CCCCCCOc1ccc(C(=O)N(Cc2ccccc2)c2c(-c3ccccc3)nc3cc(C)ccn23)cc1` the IC50 was 770 nM.
`OCCN1CCN(Cc2cccc(-c3ccc(-c4nc5ccc(C(F)(F)F)cc5[nH]4)s3)c2)CC1` gave an IC50 of 90 nM.
In the case of `c1ccc2cc3c(Nc4ccc(N5CCCCCC5)cc4)ccnc3cc2c1`, the IC50 is reported as 940 nM.
With `O=C(/C=C/c1cccc2c1OCO2)Nc1ccnc2ccncc12` the IC50 was 900 nM.
In the case of `CCCNC(=O)C1Cc2c([nH]c3cc(Br)ccc23)C2(CCN(CCc3ccccc3)CC2)N1` (stereo unspecified), the IC50 is reported as 970 nM.
`CN1CCC(NCc2ccc(-c3cnc(NCc4ccccc4)nc3)cc2)CC1` showed an IC50 of 830 nM.
`COc1cccc(CCNc2nc(NCc3ccccc3)c3cc(OC)c(OC)cc3n2)c1` gave an IC50 of 320 nM.
`NC(Cc1cccc(I)c1)C(=O)NCC1CCCO1` (stereo unspecified) showed an IC50 of 890 nM.
Work on `COc1nc2c(CCN3CCC(NCc4ccc5c(n4)NC(=O)CO5)CC3)c(Cl)cnc2cc1F` yielded an IC50 of 420 nM.
With `N#Cc1cccc(C(=O)Nc2ccc(-c3nc4ccccc4[nH]3)cc2)c1` the IC50 was 540 nM.
Molecule `CC(C)(C)c1ccc2oc(=O)n(C3CCN(C(=O)c4ccc([N+](=O)[O-])o4)CC3)c2c1` has an IC50 of 820 nM.
For `Cc1cccc2[nH]c(-c3ccc(-c4cccc(CNCc5ccccc5)c4)cc3)nc12`, the IC50 was 250 nM.
`CC(C)C[C@@H](/C=N/NC(N)=O)NC(=O)[C@H](CC(C)C)NC(=O)[C@H](CC(C)C)NC(=O)OCc1ccccc1` gave an IC50 of 150 nM.
Work on `NCc1ccc(-c2cccc(CNC3CCN(Cc4ccccc4)CC3)c2)cc1` yielded an IC50 of 670 nM.
`CCOc1ccc2c(NN=Cc3ccccc3OC)cc(C)nc2c1` showed an IC50 of 500 nM.
`COc1cc(-c2cnc(N)c(-c3nc4ccccc4[nH]3)c2)cc(OC)c1OC` was tested, and the IC50 was 190 nM.
`COc1cc(C)nc2ccc(NC(=O)Nc3cccc4ccccc34)cc12` gave an IC50 of 880 nM.
Work on `Cc1ccc(Nc2nc3cc(N(C)c4ccnc(Nc5cccc(CCS(C)(=O)=O)c5)n4)ccc3n2C)cc1` yielded an IC50 of 340 nM.
`CN(c1ccccc1)c1ccnc(/N=C(\N)Nc2ccc(Cl)cc2)n1` gave an IC50 of 1090 nM.
Work on `CCCn1c(=N)c(C(=O)NCCc2ccccc2)cc2c(=O)n3cccc(C)c3nc21` yielded an IC50 of 1120 nM.
`COc1ccc2c(c1)CC(C)(C)NC2CCCCCCCCC1NC(C)(C)Cc2cc(OC)ccc21` (stereo unspecified) was tested, and the IC50 was 1300 nM.
In the case of `c1ccc(Oc2ccc(Nc3ccnc4ccc(-c5ccco5)cc34)cc2)cc1`, the IC50 is reported as 930 nM.
`CC[C@H](C)CNC(=O)c1ccnc(-c2ccc(CN3CCC(N4CCCC4)CC3)cc2)c1` gave an IC50 of 890 nM.
Work on `OCC1CCN(Cc2cccc(-c3ccc(-c4nc5ccc(C(F)(F)F)cc5[nH]4)s3)c2)CC1` yielded an IC50 of 590 nM.
Work on `O=C(N[C@H]1CCN(Cc2ccc(OCCN3CCNCC3)c(Br)c2)C1)c1ccc(Cl)c(Cl)c1` yielded an IC50 of 480 nM.
`CCOc1ccc(-c2nc3ccc(-c4nc5ccc(N6CCN(C)CC6)cc5[nH]4)cc3[nH]2)cc1` gave an IC50 of 110 nM.
In the case of `O=C(Nc1cccc([N+](=O)[O-])c1)Nc1ccc(Cl)c(C(F)(F)F)c1`, the IC50 is reported as 1120 nM.
`N#Cc1cccc(NC(=O)Nc2ccc3c(c2)CCN(C2CCC2)CC3)c1` was tested, and the IC50 was 840 nM.
`CCCOc1cc(O)c(-c2n[nH]c(C)c2Oc2ccccc2)cc1CC` showed an IC50 of 1070 nM.
`COc1cc(OC)nc(-c2cccc(NC(=O)c3ccc4c(=O)n(CCN5CCCCC5)cnc4c3)c2)n1` showed an IC50 of 740 nM.
With `COc1ccccc1CN1CCC(NC(=O)c2ccc(-c3ccc(N(C)C)cc3)s2)CC1` the IC50 was 960 nM.
`CCCN1CCc2c(sc3nc(SCC(=O)Nc4ccc(C)cc4)n(-c4ccc(C)cc4)c(=O)c23)C1` was tested, and the IC50 was 870 nM.
`O=C1CCCN1CCCNCc1ccc(-c2ccc(-c3nc4ccc(C(F)(F)F)cc4[nH]3)cc2)cc1` showed an IC50 of 580 nM.
Work on `CNC(=O)c1ccccc1Nc1cc(Nc2cc(OC)ccn2)ncc1Cl` yielded an IC50 of 930 nM.
Molecule `NC(N)=NC(=O)Nc1ccc(Cl)c([N+](=O)[O-])c1` has an IC50 of 760 nM.
Work on `COc1ccc(-c2nc(NC(=O)CS(=O)(=O)c3ccc(F)cc3)sc2C)cc1` yielded an IC50 of 240 nM.
`COc1ccccc1-n1c(SCC(=O)Nc2ccccc2F)nc2cccnc21` gave an IC50 of 420 nM.
`COc1ccc(-n2ccnc2)cc1CNC1CCN(CC2Cn3c(=O)ccc4ccc(F)c2c43)CC1` (stereo unspecified) was tested, and the IC50 was 930 nM.
With `CCNc1cc(C(=O)N[C@@H](Cc2ccccc2)[C@H](O)CNC(C)(C)Cc2cccc(Cl)c2)cc(N2CCCCS2(=O)=O)c1` the IC50 was 890 nM.
`Cn1cncc1-c1ccc2c(-c3ccsc3)cnc(N)c2c1` was tested, and the IC50 was 850 nM.
With `CC(C)C[C@H](NC(=O)OC(C)(C)C)C(=O)Nc1ccc(Cc2ccc(NC(=O)[C@H](CC(C)C)NC(=O)OC(C)(C)C)cc2)cc1` the IC50 was 760 nM.
Molecule `CCOc1ccc(C(=O)Nc2cc(Br)c3c(c2)CNCC3)cc1C(F)(F)F` has an IC50 of 940 nM.
For `CN1CCC(N(C)c2nccc(N3CCN(Cc4cncn4Cc4ccccc4)CC3)n2)CC1`, the IC50 was 700 nM.
`Clc1ccc(OCc2ccccc2)c(-c2nc(-c3nc4ncc(Br)cc4[nH]3)cs2)c1` showed an IC50 of 210 nM.
`N#Cc1cccc(NC(=O)c2cccc(S(=O)(=O)NC3CCN(CC4CCCCC4)C3)c2)c1` (stereo unspecified) was tested, and the IC50 was 580 nM.
